Source: the NIST ThermoML archive (doi:10.1016/j.jct.2010.10.025)

Assay: xn = mol fraction of the nth substance listed
Conditions: 101 kPa, Liquid; for speed of sound: Sing-around technique in a fixed-path interferometer; for mass density: Vibrating tube method

Cc1cccc(O)c1 [3-methylphenol] + CCCCCCCCCO
x1 = 1
Conditions | mass density [kg/m3] | speed of sound [m/s]
293.15 K | 1033.99 | 1496.8
313.15 K | 1018.06 | 1434.2

Cc1ccc(O)cc1 [4-methylphenol] + CCCCCCCCCO
Conditions | mass density, 293.15 K [kg/m3] | mass density, 313.15 K [kg/m3] | speed of sound, 293.15 K [m/s] | speed of sound, 313.15 K [m/s]
x1 = 0.0723 | 837.798 | 823.756 | 1387.3 | 1319.8
x1 = 0.1353 | 846.887 | 832.662 | 1392.7 | 1324.9
x1 = 0.2032 | 856.995 | 842.572 | 1398.2 | 1330.5
x1 = 0.2637 | 866.395 | 851.785 | 1403.2 | 1335.7
x1 = 0.3492 | 880.334 | 865.479 | 1410.3 | 1343
x1 = 0.4122 | 891.234 | 876.214 | 1415.5 | 1348.6
x1 = 0.4898 | 905.461 | 890.246 | 1422.7 | 1356.1
x1 = 0.5492 | 917.111 | 901.771 | 1428.7 | 1362.2
x1 = 0.6143 | 930.635 | 915.184 | 1436 | 1369.8
x1 = 0.6735 | 943.741 | 928.201 | 1443.4 | 1377.4
x1 = 0.7455 | 960.902 | 945.287 | 1453.2 | 1388.3
x1 = 0.8163 | 979.164 | 963.518 | 1464.5 | 1400
x1 = 0.8789 | 996.577 | 980.938 | 1476 | 1412.3
x1 = 0.9362 | 1013.65 | 998.054 | 1487.5 | 1424.4
x1 = 1 | 1033.99 | 1018.47 | 1502.2 | 1439.6

CCCCCCCCCO [nonan-1-ol] + Cc1cccc(O)c1
Conditions | mass density, 293.15 K [kg/m3] | mass density, 313.15 K [kg/m3] | speed of sound, 293.15 K [m/s] | speed of sound, 313.15 K [m/s]
x2 = 0 | 827.704 | 813.877 | 1380.7 | 1314
x2 = 0.0696 | 837.032 | 823.074 | 1386.7 | 1319.2
x2 = 0.1336 | 845.992 | 831.904 | 1390.8 | 1323.6
x2 = 0.2038 | 856.282 | 842.048 | 1395.6 | 1328.8
x2 = 0.2679 | 866.185 | 851.815 | 1400.4 | 1333.8
x2 = 0.3231 | 875.133 | 860.644 | 1404.9 | 1338.4
x2 = 0.3971 | 887.768 | 873.113 | 1411.3 | 1345
x2 = 0.4653 | 900.156 | 885.348 | 1417.5 | 1351.6
x2 = 0.5405 | 914.757 | 899.778 | 1425.3 | 1359.6
x2 = 0.6082 | 928.851 | 913.714 | 1432.9 | 1367.1
x2 = 0.6786 | 944.571 | 929.281 | 1441.8 | 1376.3
x2 = 0.7459 | 960.755 | 945.321 | 1451.1 | 1386.2
x2 = 0.8167 | 979.083 | 963.512 | 1461.2 | 1397.7
x2 = 0.8892 | 999.352 | 983.643 | 1474.3 | 1410.7
x2 = 0.9459 | 1016.5 | 1000.7 | 1485 | 1422.1

CCCCCCCCCO [nonan-1-ol] + Cc1ccc(O)cc1
x2 = 0
Conditions | mass density [kg/m3] | speed of sound [m/s]
293.15 K | 827.704 | 1380.7
313.15 K | 813.877 | 1314

Cc1ccccc1O [2-methylphenol] + CCCCCCCCCO
x1 = 1
Conditions | mass density [kg/m3] | speed of sound [m/s]
293.15 K | 1045.69 | 1521.8
313.15 K | 1028.14 | 1453.3

CCCCCCCCCO [nonan-1-ol] + COc1ccccc1
Conditions | mass density, 293.15 K [kg/m3] | mass density, 313.15 K [kg/m3] | speed of sound, 293.15 K [m/s] | speed of sound, 313.15 K [m/s]
x2 = 0 | 827.704 | 813.877 | 1380.7 | 1314
x2 = 0.0691 | 834.714 | 820.629 | 1379.8 | 1312
x2 = 0.1265 | 840.852 | 826.539 | 1379.1 | 1310.9
x2 = 0.2023 | 849.439 | 834.809 | 1378.5 | 1309.8
x2 = 0.2701 | 857.605 | 842.665 | 1378.4 | 1309
x2 = 0.335 | 865.942 | 850.682 | 1378.5 | 1308.5
x2 = 0.405 | 875.488 | 859.873 | 1379 | 1308.3
x2 = 0.4753 | 885.766 | 869.775 | 1380.2 | 1308.6
x2 = 0.5348 | 895.034 | 878.714 | 1381.6 | 1309.2
x2 = 0.6025 | 906.314 | 889.609 | 1384.2 | 1311.1
x2 = 0.6657 | 917.614 | 900.551 | 1387.5 | 1313.4
x2 = 0.7399 | 931.942 | 914.464 | 1392.7 | 1317.5
x2 = 0.8198 | 948.831 | 930.915 | 1400.4 | 1323.4
x2 = 0.8791 | 962.443 | 944.199 | 1407.4 | 1329
x2 = 0.9468 | 979.271 | 960.651 | 1417.5 | 1337.5

COc1ccccc1 [anisole] + CCCCCCCCCO
x1 = 1
Conditions | mass density [kg/m3] | speed of sound [m/s]
293.15 K | 993.845 | 1427.3
313.15 K | 974.966 | 1346.7

CCCCCCCCCO [nonan-1-ol] + Cc1ccccc1O
Conditions | mass density, 293.15 K [kg/m3] | mass density, 313.15 K [kg/m3] | speed of sound, 293.15 K [m/s] | speed of sound, 313.15 K [m/s]
x2 = 0 | 827.704 | 813.877 | 1380.7 | 1314
x2 = 0.0747 | 838.281 | 824.298 | 1388 | 1320
x2 = 0.1411 | 848.105 | 833.982 | 1393.4 | 1325.4
x2 = 0.2087 | 858.578 | 844.312 | 1398.9 | 1330.9
x2 = 0.2614 | 867.121 | 852.733 | 1403.3 | 1335.5
x2 = 0.326 | 878.085 | 863.535 | 1408.9 | 1341.4
x2 = 0.4013 | 891.616 | 876.862 | 1416.1 | 1348.8
x2 = 0.4562 | 902.048 | 887.133 | 1422 | 1354.7
x2 = 0.5303 | 916.987 | 901.834 | 1430.5 | 1363.3
x2 = 0.5829 | 928.291 | 912.952 | 1437.3 | 1370
x2 = 0.645 | 942.416 | 926.834 | 1446.2 | 1378.7
x2 = 0.7171 | 960.1 | 944.211 | 1457.8 | 1389.8
x2 = 0.784 | 977.81 | 961.595 | 1470 | 1401.7
x2 = 0.8566 | 998.699 | 982.094 | 1485.3 | 1416.7
x2 = 0.9397 | 1024.88 | 1007.76 | 1505.2 | 1436.5
